Laboratory results reported in patent US12281102B2, “Inhibitors of APOL1 and methods of using same” (Vertex Pharmaceuticals Incorporated, priority 2020, dated 2025).
Where two headings read alike, the source gives them in different places.

Biological target: T1, G1 APOL1 (Homo sapiens, UniProt O14791, I384M/S342G)
T1 construct: expressed in transfected cells
T1 sequence (O14791 28-398 S342G/I384M): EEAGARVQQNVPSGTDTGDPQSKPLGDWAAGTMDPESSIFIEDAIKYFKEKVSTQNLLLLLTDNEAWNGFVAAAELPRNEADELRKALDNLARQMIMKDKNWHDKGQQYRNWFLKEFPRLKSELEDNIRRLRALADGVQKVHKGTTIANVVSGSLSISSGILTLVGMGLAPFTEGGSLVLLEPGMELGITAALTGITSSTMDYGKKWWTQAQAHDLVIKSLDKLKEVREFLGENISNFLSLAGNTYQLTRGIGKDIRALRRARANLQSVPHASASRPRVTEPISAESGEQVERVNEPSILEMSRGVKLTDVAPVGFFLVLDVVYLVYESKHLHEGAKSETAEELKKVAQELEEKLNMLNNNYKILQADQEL
Experiment: Acute APOL1 Thallium Assay with inducible stable clones of HEK 293 cells
Type: cell-based
Conditions: HEK 293 T-Rex inducible stable clone expressing G1 APOL1
Method in brief: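 APOL1 pore function was measured as thallium influx, detected by a Tl+-sensitive fluorescent dye loaded as AM ester, on a FLIPR Tetra after Tl+ addition. Cells were HEK T-Rex G1 APOL1 clone DC3.25, 26,000 per well, induced with tetracycline at plating in Opti-MEM assay medium.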

[1] = read-out: Thallium Assay (IC50)

IC50 [1] [nM] | Compound | IC50 (Thallium Assay (IC50)) [nM]
> 1000 | O=C(CC1CCCOC1)N[C@H]1C[C@H](c2c(-c3ccc(F)cc3)[nH]c3c(F)cc(F)cc32)C1 (some centres unmarked) [Compound 118] | 
250 to 1000 | O=C(CO)NC[C@H]1C[C@@H](c2c(-c3ccc(F)cc3)[nH]c3c(F)cc(F)cc32)C1 [Compound 210] | 
> 1000 | O=C(NC[C@H]1C[C@H](c2c(-c3ccc(F)cc3)[nH]c3c(F)cc(F)cc32)C1)c1ccc(=O)[nH]c1 [Compound 304] | 
< 250 | O=C(NC[C@H]1C[C@H](c2c(-c3ccc(F)cc3)[nH]c3c(F)cc(F)cc32)C1)[C@@H]1CCN1 [Compound 198] | 
> 1000 | O=c1[nH]c2ccc(S(=O)(=O)N[C@H]3C[C@H](c4c(-c5ccc(F)cc5)[nH]c5c(F)cc(F)cc54)C3)cc2[nH]1 [Compound 153] | 
> 1000 | NCC(O)CNCC1CC(c2c(-c3ccc(F)cc3)[nH]c3c(F)cc(F)cc23)C1 (centres unmarked) [Compound 403] | 
> 1000 | CS(=O)(=O)CCCC(=O)N[C@H]1C[C@H](c2c(-c3ccc(F)cc3)[nH]c3c(F)cc(F)cc32)C1 [Compound 99] | 
 | N[C@H]1C[C@@H](c2c(-c3ccc(F)cc3)[nH]c3c(F)cc(F)cc32)C1 [Compound 28, (1s,3s)-3-(5,7-difluoro-2-(4-fluorophenyl)-1H-indol-3-yl)cyclobutan-1-amine] | < 250
> 1000 | CC(CC(=O)N[C@H]1C[C@H](c2c(-c3ccc(F)cc3)[nH]c3c(F)cc(F)cc32)C1)N1CCOCC1 (mixture of isomers) [Compound 102] | 
 | CC(C)(C)OC(=O)N1CC[C@@H]1C(=O)NC[C@H]1C[C@H](c2c(-c3ccc(F)cc3)[nH]c3c(F)cc(F)cc32)C1 [Compound 310] | > 1000
> 1000 | Fc1ccc(-c2[nH]c3c(F)cc(F)cc3c2[C@H]2C[C@H](CNc3nnc(C(F)(F)F)s3)C2)cc1 [Compound 423, N-(((1r,3r)-3-(5,7-difluoro-2-(4-fluorophenyl)-1H-indol-3-yl)cyclobutyl)methyl)-5-(trifluoromethyl)-1,3,4-thiadiazol-2-amine] | 
250 to 1000 | NS(=O)(=O)CCCC(=O)N[C@H]1C[C@@H](c2c(-c3ccc(F)cc3)[nH]c3c(F)cc(F)cc32)C1 [Compound 58] | 
> 1000 | CC(=O)NC[C@]1(O)C[C@@H](c2c(-c3ccc(F)cc3)[nH]c3c(F)cc(F)cc32)C1 [Compound 431, N-(((1s,3s)-3-(5,7-difluoro-2-(4-fluorophenyl)-1H-indol-3-yl)-1-hydroxycyclobutyl)methyl)acetamide] | 
> 1000 | O=S(=O)(NC[C@H]1C[C@H](c2c(-c3ccc(F)cc3)[nH]c3c(F)cc(F)cc32)C1)NC(CO)C(F)(F)F (some centres unmarked) [Compound 358] | 
> 1000 | O=C(NC[C@H]1C[C@H](c2c(-c3ccc(F)cc3)[nH]c3c(F)cc(F)cc32)C1)c1ncccn1 [Compound 265] | 
250 to 1000 | Cc1cccc(-c2[nH]c3c(F)cc(F)cc3c2C2CC(N)C2)c1 (mixture of isomers) [Compound 5, 3-[5,7-difluoro-2-(m-tolyl)-1H-indol-3-yl]cyclobutanamine] | 
> 1000 | O=C1CC(CC(=O)NC2CC(Cc3c(-c4ccc(F)cc4)[nH]c4c(F)cc(F)cc34)C2)C(=O)N1 (centres unmarked) [Compound 164] | 
> 1000 | O=C(NC[C@H]1C[C@H](c2c(-c3ccc(F)cc3)[nH]c3c(F)cc(F)cc32)C1)c1n[nH]c(=O)[nH]1 [Compound 290] | 
250 to 1000 | CC(F)(F)C(=O)N[C@H]1C[C@@H](c2c(-c3ccc(F)cc3)[nH]c3c(F)cc(F)cc32)C1 [Compound 68] | 
> 1000 | NC(=O)[C@H](CO)NS(=O)(=O)NC[C@H]1C[C@H](c2c(-c3ccc(F)cc3)[nH]c3c(F)cc(F)cc32)C1 [Compound 353] | 
> 1000 | Cc1[nH]cnc1CCNS(=O)(=O)NC[C@H]1C[C@H](c2c(-c3ccc(F)cc3)[nH]c3c(F)cc(F)cc32)C1 [Compound 334] | 
250 to 1000 | O=C1NCCC1NCC1CC(c2c(-c3ccc(F)cc3)[nH]c3c(F)cc(F)cc23)C1 (centres unmarked) [Compound 386] | 

IC50 [1] [nM] | Compound | IC50 (Thallium Assay (IC50)) [nM]
> 1000 | C[C@H](O)[C@H](CO)NS(=O)(=O)NC[C@H]1C[C@H](c2c(-c3ccc(F)cc3)[nH]c3c(F)cc(F)cc32)C1 [Compound 360] | 
< 250 | O=C(N[C@H]1C[C@H](c2c(-c3ccc(F)cc3)[nH]c3c(F)cc(F)cc32)C1)C1(CO)CC1 [Compound 142] | 
> 1000 | CN(CC(=O)NC[C@H]1C[C@@H](c2c(-c3ccc(F)cc3)[nH]c3c(F)cc(F)cc32)C1)S(C)(=O)=O [Compound 305] | 
250 to 1000 | C[C@@H](O)CNCC1CC(c2c(-c3ccc(F)cc3)[nH]c3c(F)cc(F)cc23)C1 (some centres unmarked) [Compound 383] | 
> 1000 | CC(=O)N1CC[C@@H](C(=O)NC[C@H]2C[C@H](c3c(-c4ccc(F)cc4)[nH]c4c(F)cc(F)cc43)C2)C1 [Compound 256] | 
> 1000 | CC(C)(C)OC(=O)N1CC[C@H](O)[C@H]1C(=O)NC[C@H]1C[C@H](c2c(-c3ccc(F)cc3)[nH]c3c(F)cc(F)cc32)C1 [Compound 255] | 
250 to 1000 | NCCNCC1CC(c2c(-c3ccc(F)cc3)[nH]c3c(F)cc(F)cc23)C1 (centres unmarked) [Compound 388] | 
250 to 1000 | CN(C)C(=O)CCC(=O)N[C@H]1C[C@H](c2c(-c3ccc(F)cc3)[nH]c3c(F)cc(F)cc32)C1 [Compound 123] | 
> 1000 | CC[C@@H](N)C(=O)NC[C@H]1C[C@H](c2c(-c3ccc(F)cc3)[nH]c3c(F)cc(F)cc32)C1 [Compound 267] | 
> 1000 | CS(=O)(=O)CCC(=O)N[C@H]1C[C@@H](c2c(-c3ccc(F)cc3)[nH]c3c(F)cc(F)cc32)C1 [Compound 54] | 
> 1000 | Cn1ccc(CC(=O)NC[C@H]2C[C@@H](c3c(-c4ccc(F)cc4)[nH]c4c(F)cc(F)cc43)C2)n1 [Compound 278] | 
> 1000 | CC(NS(C)(=O)=O)C(=O)N[C@H]1C[C@@H](c2c(-c3ccc(F)cc3)[nH]c3c(F)cc(F)cc32)C1 (mixture of isomers) [Compound 55] | 
> 1000 | CC1(C(=O)NC[C@H]2C[C@@H](c3c(-c4ccc(F)cc4)[nH]c4c(F)cc(F)cc43)C2)CCC(=O)NC1 (mixture of isomers) [Compound 306] | 
> 1000 | CS(=O)(=O)CCCC(=O)N[C@H]1C[C@@H](c2c(-c3ccc(F)cc3)[nH]c3c(F)cc(F)cc32)C1 [Compound 32] | 
< 250 | NCC(=O)NC[C@H]1C[C@H](c2c(-c3ccc(F)cc3)[nH]c3c(F)cc(F)cc32)C1 [Compound 191] | 
250 to 1000 | NC(=O)CC(=O)N[C@H]1C[C@H](c2c(-c3ccc(F)cc3)[nH]c3c(F)cc(F)cc32)C1 [Compound 447, N′-[3-[5,7-difluoro-2-(4-fluorophenyl)-1H-indol-3-yl]cyclobutyl]propanediamide] | 
250 to 1000 | O=C(N[C@H]1C[C@H](c2c(-c3ccc(F)cc3)[nH]c3c(F)cc(F)cc32)C1)C(O)C1CC1 (some centres unmarked) [Compound 92] | 
< 250 | O=C(N[C@H]1C[C@H](c2c(-c3ccc(F)cc3)[nH]c3c(F)cc(F)cc32)C1)C(F)F [Compound 144] | 
> 1000 | O=C1CC(C(=O)NC[C@H]2C[C@H](c3c(-c4ccc(F)cc4)[nH]c4c(F)cc(F)cc43)C2)CN1 (some centres unmarked) [Compound 273] | 
> 1000 | O=C(CN1CCOCC1)N[C@H]1C[C@@H](c2c(-c3ccc(F)cc3)[nH]c3c(F)cc(F)cc32)C1 [Compound 57] | 
> 1000 | CN1CCC(CC(=O)N[C@H]2C[C@@H](c3c(-c4ccc(F)cc4)[nH]c4c(F)cc(F)cc43)C2)CC1 [Compound 52] | 
< 250 | O=C(NC[C@H]1C[C@H](c2c(-c3ccc(F)cc3)[nH]c3c(F)cc(F)cc32)C1)C1COC1 [Compound 202] | 
